Experimental data as given in patent US20250025411A1, “READILY SOLUBLE AND THERMOSTABLE GLUCAGON FORMULATIONS AND DELIVERY FOR MINI-DOSING AND CLOSED -LOOP PROPHYLACTIC TREATMENT OF HYPOGLYCEMIA” (Massachusetts Institute of Technology, priority 2023, published 2025).

Experiments:
[1] = Dissolution kinetics of solid glucagon tablets; type: physicochemical; conditions: pH 7.4 PBS, 37° C.
Text: Many of the top hits in the excipient screening (e.g., benzoic acid and sodium carbonate) promote glucagon dissolution by altering solution pH. Unlike many other successful excipients, the zwitterionic compound MSB can enhance glucagon dissolution in PBS without altering solution pH.
The excipients were cryo-milled and sieved to a particle size of 63-120 μm (230-120 mesh) before being combined with lyophilized glucagon powder. Solid glucagon formulations were manufactured by tablet compaction of the drug-excipient mixture (1 mm diameter die, 400 N compaction force) using an RD10A Natoli Tablet press. Magnesium stearate, a common lubricant used in tableting, was excluded from this process. The solid formulations were stored at 4° C. until use.
The dissolution kinetics of the solid formulations were assessed by incubating the solid glucagon formulations in 2 mL of pH 7.4 PBS, stored at 37° C. on an orbital shaker. At predetermined timepoints, 200 μL of supernatant was removed for HPLC analysis and an equivalent volume of release medium was replaced. The samples were diluted with equal parts of acetonitrile and analyzed using RP-HPLC.

[2] = High throughput screening of water-soluble solid excipients for glucagon dissolution; type: physicochemical; conditions: for Fold change vs. PBS Avg.: 30-minute incubation in pH 7.4 PBS containing 1 mg/mL excipient; for Fold change vs. PBS Avg. / Glucagon concentration Avg.: 37° C.; for Glucagon concentration Avg.: solubilized glucagon after 30-minute incubation of lyophilized glucagon in pH 7.4 PBS containing 1 mg/mL excipient

Row | Fold change vs. PBS Avg. [2] [fold] | Glucagon concentration Avg. [2] [mg/mL] | Compound | dissolution of solid glucagon formulation in neutral pH buffer [1] | enhancement of glucagon dissolution (statistical significance compared to no excipient) ([2]; 30-minute incubation in pH 7.4 PBS at 37° C.)
1 |  |  | glucagon [unformulated glucagon] | remained largely insoluble | 
2 | 1.11 | 0.24 | C[N+](C)(C)CC(=O)O [Betaine] |  | 
3 | 1.42 | 0.31 | CC(C)(S)[C@@H](N)C(=O)O [D-Penicillamine] |  | 
4 | 1.81 | 0.39 | CSCC[C@H](N)C(=O)O [Methionine] |  | 
5 | 1.55 | 0.33 | OC[C@H]1O[C@H](O[C@H]2O[C@H](CO)[C@@H](O)[C@H](O)[C@H]2O)[C@H](O)[C@@H](O)[C@@H]1O [D-(+)-Trehalose] |  | 
6 | 1.88 | 0.41 | CC[C@H](C)[C@H](N)C(=O)O [Isoleucine] |  | 
7 | 1.98 | 0.43 | Nc1nc2ncc(CNc3ccc(C(=O)N[C@@H](CCC(=O)O)C(=O)O)cc3)nc2c(=O)[nH]1 [Folic acid] |  | 
8 | 0.08 | 0.02 | O=C(OC[C@H]1O[C@@H](OC(=O)c2cc(O)c(O)c(OC(=O)c3cc(O)c(O)c(O)c3)c2)[C@H](OC(=O)c2cc(O)c(O)c(OC(=O)c3cc(O)c(O)c(O)c3)c2)[C@@H](OC(=O)c2cc(O)c(O)c(OC(=O)c3cc(O)c(O)c(O)c3)c2)[C@@H]1OC(=O)c1cc(O)c(O)c(OC(=O)c2cc(O)c(O)c(O)c2)c1)c1cc(O)c(O)c(OC(=O)c2cc(O)c(O)c(O)c2)c1 [Tannic Acid] |  | 
9 | 1.11 | 0.24 | NCCS(=O)(=O)O [Taurine] |  | 
10 | 3.87 | 0.83 | NC(=O)CC[C@H](N)C(=O)O [L-Glutamine] |  | successfully enhanced the dissolution of glucagon

Row | Compound | Fold change vs. PBS Avg. [2] [fold] | Glucagon concentration Avg. [2] [mg/mL] | dissolution of solid glucagon formulation in neutral pH buffer [1] | enhancement of glucagon dissolution (statistical significance compared to no excipient) ([2]; 30-minute incubation in pH 7.4 PBS at 37° C.)
11 | NC(=O)C[C@H](N)C(=O)O.O [Asparagine monohydrate] | 1.55 | 0.33 |  | 
12 | Cl.N[C@@H](CS)C(=O)O [L-Cysteine hydrochloride] | 0.93 | 0.20 |  | 
